Laboratory results reported in patent US9079866B2, “Flap modulators” (JANSSEN PHARMACEUTICA NV, priority 2013, dated 2015).
Read-outs that look alike come from different tables or passages of the source.

Legend:
[1] = tested on: leukotriene pathway in human whole blood (LTB4 levels); experiment: Human whole blood assay (A23187-stimulated LTB4); assay type: cell-based; conditions: Homo sapiens, read-out: LTB4 IC50 1:1
Procedure, shortened: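 Single-replicate data from at least one healthy donor: compound pre-incubated 15 min at 37° Celsius in 1:1 RPMI-diluted heparinised blood, followed by 30 min calcium ionophore A23187 (7 μg/mL) challenge at 37° Celsius. LTB4 in plasma quantified by kit; IC50 via 4-parameter equation.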

[2] = molecular target: human FLAP (Homo sapiens (Human), UniProt P20292); experiment: FLAP binding assay (HTRF format); conditions: wild type FLAP, HTRF format
human FLAP, sequence (P20292 whole entry): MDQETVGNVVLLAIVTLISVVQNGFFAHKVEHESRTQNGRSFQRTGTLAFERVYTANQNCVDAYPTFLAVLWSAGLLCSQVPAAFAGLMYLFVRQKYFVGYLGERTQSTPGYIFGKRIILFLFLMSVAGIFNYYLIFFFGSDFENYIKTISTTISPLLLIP
Procedure, shortened: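 HTRF ratio read-out; two independent plates, samples in duplicate on each, values averaged across plates.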

[3] = human whole blood diluted 1:1, A23187-stimulated

| IC50 [1, 3] [nM] | Ki [2] [nM] | Compound | IC50 [1] [nM] |
| --- | --- | --- | --- |
| 52 | 2 | Nc1cnc(-c2ccc(-c3ccccc3Oc3cc(N4CCC4)ncn3)cc2F)cn1 [Example 539, 5-{2′-[(6-Azetidin-1-ylpyrimidin-4-yl)oxy]-3-fluorobiphenyl-4-yl}pyrazin-2-amine] | – |
| 85 | 16 | Nc1ncc(-c2ccc(-c3ccccc3Oc3cc(N4CCC4)ncn3)cc2F)cn1 [Example 540, 5-{2′-[(6-Azetidin-1-ylpyrimidin-4-yl)oxy]-3-fluorobiphenyl-4-yl}pyrimidin-2-amine] | – |
| 66 | 12 | Cc1nccc(Oc2ccccc2-c2ccc(-c3cnc(N)cn3)c(F)c2)n1 [Example 541, 5-{3-Fluoro-2′-[(2-methylpyrimidin-4-yl)oxy]biphenyl-4-yl}pyrazin-2-amine] | – |
| 311 | 107 | Cc1nccc(Oc2ccccc2-c2ccc(-c3cnc(N)nc3)c(F)c2)n1 [Example 542, 5-{3-Fluoro-2′-[(2-methylpyrimidin-4-yl)oxy]penyl-4-yl}pyrimidin-2-amine] | – |
| 4160 | 444 | Fc1cc(-c2ccccc2Oc2ncccn2)ccc1-c1ccc2[nH]cnc2c1 [Example 543, 5-[3-Fluoro-2′-(pyrimidin-2-yloxy)biphenyl-4-yl]-1H-benzimidazole] | – |
| 1650 | 28 | Fc1cc(-c2ccccc2Oc2ncccn2)ccc1-c1cnc2[nH]cnc2c1 [Example 544, 6-[3-Fluoro-2′-(pyrimidin-2-yloxy)biphenyl-4-yl]-3H-imidazo[4,5-b]pyridine] | – |
| 50 | 12 | Cc1ccnc(Oc2ccccc2-c2ccc(-c3cnc(N)cn3)c(F)c2)n1 [Example 545, 5-{3-Fluoro-2′-[(4-methylpyrimidin-2-yl)oxy]biphenyl-4-yl}pyrazin-2-amine] | – |
| 253 | 148 | Cc1ccnc(Oc2ccccc2-c2ccc(-c3cnc(N)nc3)c(F)c2)n1 [Example 546, 5-{3-Fluoro-2′-[(4-methylpyrimidin-2-yl)oxy]biphenyl-4-yl}pyrimidin-2-amine] | – |
| 104 | 35 | Nc1cnc(-c2ccc(-c3ccccc3Oc3ccnc(C(F)(F)F)n3)cc2F)cn1 [Example 547, 5-(3-Fluoro-2′-{[2-(trifluoromethyl)pyrimidin-4-yl]oxy}biphenyl-4-yl)pyrazin-2-amine] | – |
| 741 | 467 | Nc1ncc(-c2ccc(-c3ccccc3Oc3ccnc(C(F)(F)F)n3)cc2F)cn1 [Example 548, 5-(3-Fluoro-2′-{[2-(trifluoromethyl)pyrimidin-4-yl]oxy}biphenyl-4-yl)pyrimidin-2-amine] | – |
| 123 | 9 | COc1cnc(Oc2ccccc2-c2ccc(-c3cnc(N)cn3)c(F)c2)nc1 [Example 549, 5-{3-Fluoro-2′-[(5-methoxypyrimidin-2-yl)oxy]biphenyl-4-yl}pyrazin-2-amine] | – |
| 16 | 2 | COc1cnc(Oc2ccccc2-c2ccc(-c3cnc(N)nc3)c(F)c2)nc1 [Example 550, 5-{3-Fluoro-2′-[(5-methoxypyrimidin-2-yl)oxy]biphenyl-4-yl}pyrimidin-2-amine] | – |
| 102 | 5 | Nc1ncc(-c2ccc(-c3ccc(C(F)(F)F)cc3Oc3ncccn3)cc2F)cn1 [Example 552, 5-[3-Fluoro-2′-(pyrimidin-2-yloxy)-4′-(trifluoromethyl)biphenyl-4-yl]pyrimidin-2-amine] | – |
| 39 | 2 | Nc1cnc(-c2ccc(-c3ccc(C(F)(F)F)cc3O)cc2F)cn1 [Example 554, 4′-(5-Aminopyrazin-2-yl)-3′-fluoro-4-(trifluoromethyl)biphenyl-2-ol] | – |
| 24 | 2 | Nc1cnc(-c2ccc(-c3ccc(C(F)(F)F)cc3Oc3ccnc(N)n3)cc2F)cn1 [Example 555, 4-{[4′-(5-Aminopyrazin-2-yl)-3′-fluoro-4-(trifluoromethyl)biphenyl-2-yl]oxy}pyrimidin-2-amine] | – |
| 13 | 1 | Nc1cnc(-c2ccc(-c3ccc(C(F)(F)F)cc3Oc3nccc(N)n3)cc2F)cn1 [Example 556, 2-{[4′-(5-Aminopyrazin-2-yl)-3′-fluoro-4-(trifluoromethyl)biphenyl-2-yl]oxy}pyrimidin-4-amine] | – |
| 210 | 12 | Nc1ncc(-c2ccc(-c3ccc(C(F)(F)F)cc3O)cc2F)cn1 [Example 558, 4′-(2-Aminopyrimidin-5-yl)-3′-fluoro-4-(trifluoromethyl)biphenyl-2-ol] | – |
| 55 | 2 | Nc1ccnc(Oc2cc(C(F)(F)F)ccc2-c2ccc(-c3cnc(N)nc3)c(F)c2)n1 [Example 559, 5-{2′-[(4-Aminopyrimidin-2-yl)oxy]-3-fluoro-4′-(trifluoromethyl)biphenyl-4-yl}pyrimidin-2-amine] | – |

| IC50 [1, 3] [nM] | Ki [2] [nM] | Compound | IC50 [1] [nM] |
| --- | --- | --- | --- |
| 95 | 5 | Nc1ncc(-c2ccc(-c3ccc(C(F)(F)F)cc3Oc3ccnc(N)n3)cc2F)cn1 [Example 560, 4-{[4′-(2-Aminopyrimidin-5-yl)-3′-fluoro-4-(trifluoromethyl)biphenyl-2-yl]oxy}pyrimidin-2-amine] | – |
| 43 | 4 | Nc1cc(Oc2cc(C(F)(F)F)ccc2-c2ccc(-c3cnc(N)nc3)c(F)c2)ncn1 [Example 561, 5-{2′-[(6-Aminopyrimidin-4-yl)oxy]-3-fluoro-4′-(trifluoromethyl)biphenyl-4-yl}pyrimidin-2-amine] | – |
| 226 | 55 | Nc1cnc(-c2ccc(-c3ccc(C(F)(F)F)cc3C(F)(F)F)cc2F)cn1 [Example 562, 5-[3-Fluoro-2′,4′-bis(trifluoromethyl)biphenyl-4-yl]pyrazin-2-amine] | – |
| 328 | 20 | N#Cc1cc(C(F)(F)F)ccc1-c1ccc(-c2cnc(N)cn2)c(F)c1 [Example 563, 4′-(5-Aminopyrazin-2-yl)-3′-fluoro-4-(trifluoromethyl)biphenyl-2-carbonitrile] | – |
| 583 | 200 | Nc1ncc(-c2ccc(-c3ccc(C(F)(F)F)cc3Oc3ncccn3)cn2)cn1 [Example 564, 5-{5-[2-(Pyrimidin-2-yloxy)-4-(trifluoromethyl)phenyl]pyrridn-2-yl}pyrimidin-2-amine] | – |
| 984 | 81 | Nc1ncc(-c2ccc(-c3ccc(C(F)(F)F)cc3Oc3ccnc(N)n3)cn2)cn1 [Example 565, 4-{2-[6-(2-Aminopyrimidin-5-yl)pyridin-3-yl]-5-(trifluoromethyl)phenoxy}pyrimidin-2-amine] | – |
| 335 | 70 | Cc1cc(-c2ccccc2S(=O)(=O)NC(C)(C)C)ccc1-c1cnc(N)cn1 [Example 569, 4′-(5-Aminopyrazin-2-yl)-N-tert-butyl-3′-methylbiphenyl-2-sulfonamide] | – |
| 1180 | 35 | COc1cc(-c2ccccc2S(=O)(=O)NC(C)(C)C)ccc1-c1cnc(N)cn1 [Example 570, 4′-(5-Aminopyrazin-2-yl)-N-tert-butyl-3′-methoxybiphenyl-2-sulfonamide] | – |
| 91 | 2 | CC(C)(C)NS(=O)(=O)c1ccccc1-c1ccc(-c2cnc(N)cn2)cc1 [Example 571, 4′-(5-Aminopyrazin-2-yl)-N-tert-butylbiphenyl-2-sulfonamide] | – |
| 494 | 15 | CC(C)(C)NS(=O)(=O)c1ccccc1-c1ccc(-c2cnc(N)cn2)cc1F [Example 574, 4′-(5-Aminopyrazin-2-yl)-N-tert-butyl-2′-fluorobiphenyl-2-sulfonamide] | – |
| 116 | 8 | CC(C)(C)NS(=O)(=O)c1ccccc1-c1ccc(-c2coc(N)n2)c(F)c1 [Example 576, 4′-(2-Amino-1,3-oxazol-4-yl)-N-tert-butyl-3′-fluorobiphenyl-2-sulfonamide] | – |
| 91 | 10 | CC(C)(C)NS(=O)(=O)c1ccccc1-c1ccc(-c2csc(N)n2)c(F)c1 [Example 577, 4′-(2-Amino-1,3-thiazol-4-yl)-N-tert-butyl-3′-fluorobiphenyl-2-sulfonamide] | – |
| 956 | 25 | CCN(CC)S(=O)(=O)c1ccccc1-c1ccc(-c2csc(N)n2)c(F)c1 [Example 578, 4′-(2-Amino-1,3-thiazol-4-yl)-N,N-diethyl-3′-fluorobiphenyl-2-sulfonamide] | – |
| 5000 | 55 | CC(C)(C)NS(=O)(=O)c1ccccc1-c1ccc(-c2cn3cccc(F)c3n2)c(F)c1 [Example 580, N-tert-Butyl-3′-fluoro-4′-(8-fluoroimidazo[1,2-a]pyridin-2-yl)biphenyl-2-sulfonamide] | – |
| 2820 | 60 | CC(C)(C)NS(=O)(=O)c1ccccc1-c1ccc(-c2cn3c(N)cccc3n2)c(F)c1 [Example 581, 4′-(5-Aminoimidazo[1,2-a]pyridin-2-yl)-N-tert-butyl-3′-fluorobiphenyl-2-sulfonamide] | – |
| > 10000 | 133 | COc1cccc2nc(-c3ccc(-c4ccccc4S(=O)(=O)NC(C)(C)C)cc3F)cn12 [Example 588, N-tert-Butyl-3′-fluoro-4′-(5-methoxyimidazo[1,2-a]pyridin-2-yl)biphenyl-2-sulfonamide] | – |
| 16.7 | 0.6 | Nc1cnc(-c2ccc(-c3ccccc3-c3ccc(-c4cnc(N)cn4)c(F)c3)cc2F)cn1 [Example 602, 5,5′-(3,3″-Difluoro-1,1′:2′,1″-terphenyl-4,4″-diyl)dipyrazin-2-amine] | – |

| Compound | IC50 [1, 3] [nM] | Ki [2] [nM] | IC50 [1] [nM] |
| --- | --- | --- | --- |
| C[Si](C)(C)CCOCOc1cc(C(F)(F)F)ccc1-c1ccc(-c2cnc(N)nc2)c(F)c1 [Example 557, 5-[3-Fluoro-4′-(trifluoromethyl)-2′-{[2-(trimethylsilyl)ethoxy]methoxy}biphenyl-4-yl]-pyrimidin-2-amine] | – | 147 | 1070 |
